Data from patent US9695155B2, “Herbicidal substituted pyrimidinyloxy benzene compounds” (E. I. DU PONT DE NEMOURS AND COMPANY, priority 2013, dated 2017).

Legend:
bluegrass [1] = assay: Test D preemergence; assay type: in vivo, Poa annua; conditions: Poa annua, pre-emergence, scale 0-100, read-out: Plant response rating, Bluegrass
How it was run: (§1)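 In a controlled growth environment, treated and control plants were held 7 to 21 days, then compared visually. Damage was scored 0–100, where 100 means complete control. Sprays contained surfactant in a non-phytotoxic solvent; post-applied plants were at the 1- to 4-leaf stage.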

bromegrass, downy = assay: Test D preemergence; assay type: in vivo, Bromus tectorum; conditions: Bromus tectorum, pre-emergence, scale 0-100, read-out: Plant response rating, Bromegrass, Downy
How it was run: as §1

field violet [2] = assay: Test D preemergence; assay type: in vivo, Viola arvensis; conditions: Viola arvensis, pre-emergence, scale 0-100, read-out: Plant response rating, Field Violet
How it was run: as §1

deadnettle = assay: Test D preemergence; assay type: in vivo, Lamium amplexicaule; conditions: Lamium amplexicaule, pre-emergence, scale 0-100, read-out: Plant response rating, Deadnettle
How it was run: as §1

wild radish = assay: Test D preemergence; assay type: in vivo, Raphanus raphanistrum; conditions: Raphanus raphanistrum, pre-emergence
How it was run: as §1

bluegrass [3] = assay: Test D postemergence; assay type: in vivo, Poa annua; conditions: Poa annua, post-emergence, Postemergence, scale 0 to 100 (0 no effect, 100 complete control), read-out: Plant response rating, Bluegrass
How it was run: as §1

field violet [4] = assay: Test D postemergence; assay type: in vivo, Viola arvensis; conditions: Viola arvensis, post-emergence, scale 0 to 100 (0 no effect, 100 complete control), read-out: Plant response rating, Field Violet
How it was run: as §1

green foxtail = assay: Test D postemergence; assay type: in vivo, Setaria viridis; conditions: Setaria viridis, post-emergence, scale 0 to 100 (0 no effect, 100 complete control), read-out: Plant response rating, Foxtail, Green
How it was run: as §1

kochia = assay: Test D postemergence; assay type: in vivo, Kochia scoparia; conditions: Bassia scoparia, post-emergence, scale 0 to 100 (0 no effect, 100 complete control), read-out: Plant response rating, Kochia
How it was run: as §1

wild mustard = assay: Test D postemergence; assay type: in vivo, Sinapis arvensis; conditions: Brassica, post-emergence, scale 0 to 100 (0 no effect, 100 complete control), read-out: Plant response rating, Mustard, Wild
How it was run: as §1

windgrass = assay: Test D postemergence; assay type: in vivo, Apera spica-venti; conditions: Apera spica-venti, post-emergence, scale 0 to 100 (0 no effect, 100 complete control), read-out: Plant response rating, Windgrass
How it was run: as §1

corn = assay: Test E postemergence; assay type: in vivo, Zea mays; conditions: Zea mays, post-emergence
How it was run: (§2)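 Response was scored visually on a 0-100 scale (100 = complete control) versus controls after 14 to 21 days in the greenhouse. Test chemicals, formulated with surfactant in a non-phytotoxic solvent mixture, had been applied preemergence to seeds in silt loam soil or postemergence to 1- to 4-leaf plants in potting medium.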

soybean = assay: Test E postemergence; assay type: in vivo, Glycine max; conditions: Glycine max, post-emergence
How it was run: as §2

[5] = Postemergence, 31 g ai/ha, scale 0 to 100
[6] = Postemergence, 62 g ai/ha, scale 0 to 100
[7] = Postemergence, 125 g ai/ha, scale 0 to 100
[8] = Postemergence, 250 g ai/ha, scale 0 to 100
[9] = postemergence, 16 g ai/ha, scale 0 to 100, 0 no effect, 100 complete control

N#Cc1cccc(Oc2ncc(Br)cn2)c1-n1cc(C(F)(F)F)cn1 [Compound 59, 3-[(5-bromo-2-pyrimidinyl)oxy]-2-[4-(trifluoromethyl)-1H-pyrazol-1-yl]benzonitrile]
pest or weed control at 31 g/ha (bluegrass [1]; 31 g ai/ha): 5%
pest or weed control at 62 g/ha (bluegrass [1]; 62 g ai/ha): 10%
pest or weed control at 125 g/ha (bluegrass [1]; 125 g ai/ha): 35%
pest or weed control at 250 g/ha (bluegrass [1]; 250 g ai/ha): 85%
pest or weed control at 31 g/ha (bromegrass, downy; 31 g ai/ha): 0%
pest or weed control at 62 g/ha (bromegrass, downy; 62 g ai/ha): 0%
pest or weed control at 125 g/ha (bromegrass, downy; 125 g ai/ha): 10%
pest or weed control at 250 g/ha (bromegrass, downy; 250 g ai/ha): 40%
pest or weed control at 31 g/ha (field violet [2]; 31 g ai/ha): 65%
pest or weed control at 62 g/ha (field violet [2]; 62 g ai/ha): 85%
pest or weed control at 125 g/ha (field violet [2]; 125 g ai/ha): 100%
pest or weed control at 250 g/ha (field violet [2]; 250 g ai/ha): 100%
pest or weed control at 31 g/ha (deadnettle; 31 g ai/ha): 100%
pest or weed control at 62 g/ha (deadnettle; 62 g ai/ha): 100%
pest or weed control at 125 g/ha (deadnettle; 125 g ai/ha): 100%
pest or weed control at 250 g/ha (deadnettle; 250 g ai/ha): 100%
pest or weed control at 31 g/ha (wild radish; 31 g ai/ha, scale 0 (no effect) to 100 (complete control), read-out: Plant response rating, Radish, Wild): 95%
pest or weed control at 62 g/ha (wild radish; 62 g ai/ha, scale 0-100, read-out: Plant response rating, Radish, Wild): 100%
pest or weed control at 125 g/ha (wild radish; 125 g ai/ha, scale 0-100, read-out: Plant response rating, Radish, Wild): 95%
pest or weed control at 250 g/ha (wild radish; 250 g ai/ha, scale 0-100, read-out: Plant response rating, Radish, Wild): 100%
pest or weed control at 31 g/ha (bluegrass [3]; 31 g ai/ha): 15%
pest or weed control at 62 g/ha (bluegrass [3]; 62 g ai/ha): 15%
pest or weed control at 125 g/ha (bluegrass [3]; 125 g ai/ha): 20%
pest or weed control at 250 g/ha (bluegrass [3]; 250 g ai/ha): 40%
pest or weed control at 31 g/ha (field violet [4]; 31 g ai/ha): 100%
pest or weed control at 62 g/ha (field violet [4]; 62 g ai/ha): 100%
pest or weed control at 125 g/ha (field violet [4]; 125 g ai/ha): 100%
pest or weed control at 250 g/ha (field violet [4]; 250 g ai/ha): 100%
pest or weed control at 31 g/ha (green foxtail; 31 g ai/ha): 20%
pest or weed control at 62 g/ha (green foxtail; 62 g ai/ha): 35%
pest or weed control at 125 g/ha (green foxtail; 125 g ai/ha): 50%
pest or weed control at 250 g/ha (green foxtail; 250 g ai/ha): 80%
pest or weed control at 31 g/ha (kochia; 31 g ai/ha): 95%
pest or weed control at 62 g/ha (kochia; 62 g ai/ha): 95%
pest or weed control at 125 g/ha (kochia; 125 g ai/ha): 95%
pest or weed control at 250 g/ha (kochia; 250 g ai/ha): 95%
pest or weed control at 31 g/ha (wild mustard; 31 g ai/ha): 100%
pest or weed control at 62 g/ha (wild mustard; 62 g ai/ha): 95%
pest or weed control at 125 g/ha (wild mustard; 125 g ai/ha): 100%
pest or weed control at 250 g/ha (wild mustard; 250 g ai/ha): 100%
pest or weed control at 31 g/ha (windgrass; 31 g ai/ha): 15%
pest or weed control at 62 g/ha (windgrass; 62 g ai/ha): 25%
pest or weed control at 125 g/ha (windgrass; 125 g ai/ha): 35%
pest or weed control at 250 g/ha (windgrass; 250 g ai/ha): 45%
corn plant response (injury) rating, 0-100 at 31 g/ha (corn; [5]): 5%
corn plant response (injury) rating, 0-100 at 62 g/ha (corn; [6]): 10%
corn plant response (injury) rating, 0-100 at 125 g/ha (corn; [7]): 10%
corn plant response (injury) rating, 0-100 at 250 g/ha (corn; [8]): 15%
corn plant response (injury) rating, 0-100 at 16 g/ha (corn; [9]): 5%
plant response (crop injury) rating, soybean, 0-100 scale at 31 g/ha (soybean; [5]): 65%
plant response (crop injury) rating, soybean, 0-100 scale at 62 g/ha (soybean; [6]): 95%
plant response (crop injury) rating, soybean, 0-100 scale at 125 g/ha (soybean; [7]): 95%
plant response (crop injury) rating, soybean, 0-100 scale at 250 g/ha (soybean; [8]): 98%
plant response (crop injury) rating, soybean, 0-100 scale at 16 g/ha (soybean; [9]): 60%
